# Test results from US20240392302A1, “METHOD FOR DETECTING AND QUANTIFYING RNA” (FLUORESCENCE DIAGNOSIS (SHANGHAI) BIOTECH COMPANY LTD., priority 2021, published 2024).
# Tests used:
# [1] = Function detection of the nucleic acid aptamer: fluorescence activation of I-5-14 by N16-1, its mutants and base-modified forms; assay type: biochemical; conditions: base-modified aptamers
# Procedure: A primer containing T7 promoter was used for amplification of corresponding cDNA of RNA to be detected, and T7 RNA polymerase (purchased from Fermentas) was used for obtaining RNA by means of transcription with recovered double-stranded cDNA as a template. 10 μL of 3 M NaAc and 115 μL of DEPC water were added into 20 μL of transcription system, and were mixed well before 150 μL of phenol chloroform-[…] mixture (phenol:chloroform:[…]=25:24:1) was added; then the mixture was mixed well by means of oscillation, and the supernatant was taken after centrifugation at 10,000 rpm for 5 min. An equal volume of chloroform solution was added and was mix well by means of oscillation, and then the supernatant was taken after centrifugation at 10,000 rpm for 5 min; the process was repeated once. 2.5 times the volume of anhydrous ethanol was added into the supernatant, and the mixture was placed in a refrigerator at −20° C. for 30 min and was subject to centrifugation at 12,000 rpm at 4° C. for 5 min; then the supernatant was removed, and the precipitation was cleaned twice with 75% pre-cooled anhydrous ethanol. After volatilization of the ethanol, the precipitation was re-suspended with an appropriate amount of screening buffer, and then was treated at 75° C. for 5 min and was placed at room temperature for more than 10 min for subsequent experiments.
# (§1) Nucleic acid aptamer molecules of N16 or N16 mutants were prepared by using the commonly-used experimental method (I), 2.5 μM of nucleic acid aptamer molecules and 0.5 μM of fluorophore molecules were incubated in a detection buffer (40 mM of HEPES, pH 7.4, 125 mM of KCl, 5 mM of MgCl2, 5% DMSO), and the maximum excitation peak and the maximum emission peak of the fluorescence of the nucleic acid aptamer-fluorophore molecular complex were detected with Synergy Neo2 multifunctional enzyme-labeler. Synergy Neo2 multifunctional enzyme-labeler was used again to detect fluorescence intensity of the nucleic acid aptamer-fluorophore molecular complex under its maximum excitation and emission conditions, the control sample ([…] of fluorophore molecules without nucleic acid aptamer) was also measured under the same conditions, and the ratio of fluorescence intensity was calculated. For example, as for fluorescence of the complex formed by 2.5 μM of N16-1 nucleic acid aptamer and 0.5 μM of I-5-14 fluorophore molecules, the maximum excitation peak is 512 nm and the maximum emission peak is 574 nm. It was detected by the Synergy Neo2 multifunctional enzyme-labeler that the fluorescence intensity of the complex at an excitation condition of 512±10 nm and an emission condition of 574 nm±10 nm was 49,088, while the fluorescence intensity of the control (0.5 μM of I-5-14 fluorophore molecules) under the same detection conditions was 399, so the activation multiple of N16-1 nucleic acid aptamer to I-5-14 fluorophore molecules was 123.
# According to the results, most N16-1 mutants with a single base mutation retained a relatively strong fluorescence activation effect (no smaller than 2 times) on I-5-14 (Table 2). Some N16-1 mutants with 2 to 5 base mutations still retained a relatively strong fluorescence activation effect (greater than 20 times) for I-5-14 (Table 3). In a word, many single-base and multi-base mutants of N16-1 might still retain the aptamer function of activating the 1-5-14 fluorophore molecules.
# [2] = system: F30-N16-1 RNA aptamer molecules; assay: Binding of F30-N16-1 RNA aptamer molecules with different fluorescent molecules (fluorescence spectrum, activation multiple); assay type: biochemical; conditions: for Maximum emission peak (nm) / Maximum excitation peak (nm): complex with F30-N16-1; for Activation Multiple: fluorophore with F30-N16-1
# Procedure: as §1
# F30-N16-1 RNA aptamer molecules were prepared by using the commonly-used experimental method (I), and were used for detecting basic properties, including fluorescence spectrum and fluorescence activation multiple, of the binding of I-5-14 analogues with N16.
Compound,Maximum emission peak (nm) [2] [nm],Maximum excitation peak (nm) [2] [nm],Activation Multiple [2],fluorescence activation effect of base-modified N16-1 for I-5-14 [1]
"N16-3: base-modified N16-1, SEQ ID NO: 5, some of the bases modified by 2′-F (GGGCNCCAGGNGCNGCNNCGGCAGGNAACGGACNNAGANCCACNGNACGCCC; some nucleotides 2'-fluoro modified, positions not given here)",–,–,–,significantly activate
CN(CCO)c1ccc(/C=C2\OC(=O)NC2=O)s1 [I-5-1],500,460,14,–
CCN1C(=O)O/C(=C\c2ccc(N(C)CCO)cc2)C1=O [I-5-13],492,393,8,–
CN1C(=O)S/C(=C\c2cc3c4c(c2)CCCN4CCC3)C1=S [I-5-46],633,542,7,–
CN1CCc2cc(/C=C3\NC(=S)NC3=O)c(Cl)cc21 [I-5-30],562,497,11,–
CN(C)c1ccc(/C=C2\NC(=S)NC2=O)s1 [I-5-12],555,535,11,–
CC1=CC(C)(C)N(C)c2ccc(/C=C3\SC(=S)NC3=O)cc21 [I-5-41],612,517,85,–
Cc1cc(N(C)CCNC(=O)CCOCCOCCO)ccc1/C=C1\SC(=O)NC1=S [I-5-27],603,565,11,–
O=C1NC(=S)S/C1=C\c1cc2c3c(c1)CCCN3CCC2 [I-5-47],607,529,245,–
CN(C)c1ccc(/C=C2\SC(=O)NC2=S)s1 [I-5-8],582,554,15,–
CN1CCSc2cc(/C=C3\SC(=O)NC3=O)ccc21 [I-5-33],553,442,154,–
CN(C)c1ccc(/C=C2\OC(=O)N(N)C2=O)cc1 [I-5-19],499,397,18,–
CC1=CC(C)(C)N(C)c2ccc(/C=C3\NC(=S)NC3=O)cc21 [I-5-45],595,497,11,–
"N16-2: base-modified N16-1, SEQ ID NO: 4, stem-loop structure bases replaced with deoxyribonucleotides (GGGCNCCAGGNGCNGCNNCGGCAGGNAACGGACNNAGANCCACNGNACGCCC; some stem-loop nucleotides deoxyribonucleotides, positions not given here)",–,–,–,significantly activate
CN1CCc2cc(/C=C3\SC(=O)NC3=O)ccc21 [I-5-29],525,453,14,–
CN(CCNS(C)(=O)=O)c1ccc(/C=C2\SC(=O)NC2=S)s1 [I-5-3],580,550,14,–
CN1CCOc2cc(/C=C3\SC(=S)N(CCC(=O)O)C3=S)ccc21 [I-5-38],647,545,7,–
CN(C)c1ccc(/C=C2\SC(=S)NC2=S)cc1 [I-5-22],657,613,126,–
CN1C(=O)/C(=C/c2ccc3c(c2)CCCN3C)NC1=S [I-5-40],548,473,8,–

# The next lines start with results.
Maximum emission peak (nm) [2] [nm],Maximum excitation peak (nm) [2] [nm],Activation Multiple [2],Compound,fluorescence activation effect of base-modified N16-1 for I-5-14 [1]
743,686,7,CN1C(=O)/C(=C/c2cc3c(s2)-c2ccc(N(CCO)CCO)cc2C3(C)C)SC1=S [I-5-80],–
665,522,12,CN(CCO)c1ccc2cc(/C=C3\SC(=S)NC3=O)sc2c1 [I-5-64],–
691,635,14,CN(C)c1ccc2c(c1)C(C)(C)c1cc(/C=C3\SC(=O)NC3=O)ccc1-2 [I-5-74],–
721,636,14,Nc1ccc2nc(/C=C3\SC(=S)NC3=S)sc2c1 [I-5-72],–
733,685,4,CN(CCO)c1cc2c(s1)-c1sc(/C=C3\SC(=S)NC3=O)cc1C2(C)C [I-5-83],–
686,556,12,CN(CCO)c1ccc2nc(/C=C3\SC(=S)N(CCC(=O)O)C3=O)sc2c1 [I-5-70],–
652,516,7,CN(C)c1ccc2cc(/C=C3\NC(=S)NC3=O)sc2c1 [I-5-67],–
783,736,5,CN(CCO)c1ccc2c(c1)C(C)(C)c1cc(/C=C3\NC(=S)NC3=O)sc1-2 [I-5-77],–
677,483,6,CN(CCO)c1ccc(-c2ccc(/C=C3\SC(=S)NC3=O)s2)cc1 [I-5-61],–
647,579,1279,CN(CCO)c1cc2sc(/C=C3\SC(=S)NC3=O)cc2s1 [I-5-57],–
725,692,1422,CN(CCO)c1cc2sc(/C=C3\SC(=S)NC3=S)cc2s1 [I-5-58],–
774,724,9,CN(CCO)c1ccc2c(c1)C(C)(C)c1cc(/C=C3\NC(=S)NC3=O)ccc1-2 [I-5-76],–
731,681,12,CC1(C)c2cc(/C=C3\SC(=S)NC3=O)ccc2-c2ccc(N(CCO)CCO)cc21 [I-5-73],–
675,579,6,S=C1NC(=S)/C(=C/c2cc3c4c(c2)CCCN4CCC3)S1 [I-5-48],–
